Read-outs that look alike come from different tables or passages of the source.
Assays:
HIV-1 RT = molecular target: T1, HIV-1 RT (Human immunodeficiency virus type 1 group M subtype B, UniProt P04585); experiment: HIV-1 Reverse Transcriptase Assay (RNA-dependent DNA polymerase activity, SPA); assay type: biochemical
T1 construct: HIV-1 RT enzyme (final concentrations of 1-3 nM)
Protocol: HIV-1 Reverse Transcriptase Assay
RNA-dependent DNA polymerase activity was measured using a biotinylated primer oligonucleotide and tritiated dNTP substrate. Newly synthesized DNA was quantified by capturing the biotinylated primer molecules on streptavidin coated Scintillation Proximity Assay (SPA) beads (Amersham). The sequences of the polymerase assay substrate were: 18 nt DNA primer, 5′-Biotin/GTC CCT GTT CGG GCG CCA-3′; 47 nt RNA template, 5′-GGGUCUCUCUGGUUAGACCACUCUAGCAGUGGCGCCCGAACAGGGAC-3′. The biotinylated DNA primer was obtained from the Integrated DNA Technologies Inc. and the RNA template was synthesized by Dharmacon. The DNA polymerase assay (final volume 50 μl) contained 32 nM biotinylated DNA primer, 64 nM RNA substrate, dGTP, dCTP, dTTP (each at 5 μM), 103 nM [^3H]-dATP (specific activity=[…]), in 45 mM Tris-HCl, pH 8.0, 45 mM NaCl, 2.7 mM Mg(CH3COO)2, 0.045% Triton X-100 w/v, 0.9 mM EDTA. The reations contained 5 ul of serial compound dilutions in 100% DMSO for IC50 determination and the final concentrations of DMSO were 10%. Reactions were initiated by the addition of 30 μl of the HIV-1 RT enzyme (final concentrations of 1-3 nM). Protein concentrations were adjusted to provide linear product formation for at least 30 min of incubation. After incubation at 30° C. for 30 min, the reaction was quenched by addition of 50 μl of 200 mM EDTA (pH 8.0) and 2 mg/ml SA-PVT SPA beads (Amersham, RPNQ0009, reconstituted in 20 mM Tris-HCl, pH 8.0, 100 mM EDTA and 1% BSA). The beads were left to settle overnight and the SPA signals were counted in a 96-well top counter-NXT (Packard). IC50 values were obtained by sigmoidal regression analysis using GraphPad.

[1] = tested on: HXB2-strain of HIV-1 in MT4 cells; experiment: Antiviral Assay (protection of HIV-1-infected MT4 cells from cell death, MTT); assay type: cell-based; details: Human immunodeficiency virus 1, 120 h, MT4 cells infected with HXB2-strain of HIV-1, 5 days
Protocol: Anti-HIV-1 antiviral activity was assessed using an adaptation of the method of Pauwels et al. (Pauwels et al., J Virol Methods 1988 20:309-321). The method is based on the ability of compounds to protect HIV-1-infected T lymphoblastoid cells (MT4 cells) from cell-death mediated by the infection. The endpoint of the assay was calculated as the concentration of compound at which the cell viability of the culture was preserved by 50% (‘50% inhibitory concentration’, IC50). The cell viability of a culture was determined by the uptake of soluble, yellow 3-[4,5-dimethylthiazol-2-yl]-2,5-diphenyltetrazolium bromide (MTT) and its reduction to a purple insoluble formazan salt. After solubilization, spectrophotometric methods were employed to measure the amount of formazan product. […]
A fresh solution of 5 mg/mL MTT was prepared in 0.01 M phosphate buffered saline, pH 7.2 and 20 microliters added to each culture. […] When the formazan deposit was fully solubilized by further mixing, the absorbance (OD) of the cultures was measured at 540 nm and 690 nm wavelength (690 nm readings were used as blanks for artifacts between wells). The percent protection for each treated culture was then calculated from the equation: […]

[2] = HIV-1 RT enzyme 1-3 nM, 30° C., 30 min, read-out: HIV-1 RT IC50

| Compound | melting point | IC50 (HIV-1 RT; [2]) | IC50 (HIV-1 RT) | IC50 [1] |
| --- | --- | --- | --- | --- |
| N#Cc1cc(Cl)cc(Oc2c(Br)ccc(Cn3c(=O)[nH]c4c3ccc[n+]4[O-])c2F)c1 [Compound I-3] | 259 to 260 °C | 0.0159 µM | – | – |
| N#Cc1cc(Cl)cc(Oc2c(Br)ccc(Cn3c(=O)[nH]c4c[n+]([O-])ccc43)c2F)c1 [Compound I-5] | 226.8 to 229 °C | 0.492 µM | – | – |
| N#Cc1cc(Cl)cc(Oc2c(Br)ccc(CNC(=O)Nc3ccccc3F)c2F)c1 [Compound I-11] | 215.5 to 215.8 °C | 0.0331 µM | – | – |
| N#Cc1cc(Cl)cc(Oc2c(Br)ccc(Cn3c(=O)[nH]c4cnccc43)c2F)c1 [Compound I-4, 3-[6-Bromo-2-fluoro-3-(2-oxo-2,3-dihydro-imidazo[4,5-c]pyridin-1-ylmethyl)-phenoxy]-5-chloro-benzonitrile] | 219 to 221.5 °C | – | 0.005 µM | 0.0004 µM |
| N#Cc1cc(Cl)cc(Oc2c(Cl)ccc(Cn3c(=O)[nH]c4cnccc43)c2F)c1 [Compound I-6, 3-Chloro-5-[6-chloro-2-fluoro-3-(2-oxo-2,3-dihydro-imidazo[4,5-c]pyridin-1-ylmethyl)-phenoxy]-benzonitrile] | 232 to 233 °C | 0.007 µM | – | – |
| Cc1n[nH]c(=O)n1Cc1ccc(Br)c(Oc2cc(Cl)cc(C#N)c2)c1F [Compound I-10, 3-[6-Bromo-2-fluoro-3-(3-methyl-5-oxo-1,5-dihydro-[1,2,4]triazol4-ylmethyl)-phenoxy]-5-chloro-benzonitrile] | 129.9 to 131 °C | 0.0546 µM | – | – |
| N#Cc1cc(Cl)cc(Oc2c(Br)ccc(Cn3c(=O)[nH]c4ncccc43)c2F)c1 [Compound I-2, 3-[6-Bromo-2-fluoro-3-(2-oxo-2,3-dihydro-imidazo[4,5-b]pyridin-1-ylmethyl)-phenoxy]-5-chloro-benzonitrile] | 255.5 to 258.5 °C | 0.0058 µM | – | – |
| CCc1n[nH]c(=O)n1Cc1ccc(Br)c(Oc2cc(Cl)cc(C#N)c2)c1F [Compound I-9, 3-[6-Bromo-3-(3-ethyl-5-oxo-1,5-dihydro-[1,2,4]triazol-4-ylmethyl)-2-fluoro-phenoxy]-5-chloro-benzonitrile] | 264 to 265 °C | 0.0197 µM | – | – |
| N#Cc1cc(Cl)cc(Oc2c(Br)ccc(Cn3c(=O)[nH]c4nnccc43)c2F)c1 [Compound I-7, 3-[6-Bromo-2-fluoro-3-(6-oxo-6,7-dihydro-imidazo[4,5-c]pyridazin-5-ylmethyl)-phenoxy]-5-chloro-benzonitrile] | – | 0.0051 µM | – | – |
| N#Cc1cc(Cl)cc(Oc2c(Br)ccc(Cn3cn[nH]c3=O)c2F)c1 [Compound I-8, 3-[6-Bromo-2-fluoro-3-(5-oxo-1,5-dihydro-[1,2,4]triazol-4-ylmethyl)-phenoxy]-5-chloro-benzonitrile] | 107 °C | 0.0451 µM | – | – |
| N#Cc1cc(Cl)cc(Oc2c(Br)ccc(COC(=O)Nc3ccc(Cl)cc3Cl)c2F)c1 [Compound I-12] | 138.3 to 139.9 °C | 0.0682 µM | – | – |
| N#Cc1cc(Cl)cc(Oc2c(Br)ccc(Cn3c(=O)[nH]c4ccccc43)c2F)c1 [Compound I-1, 3-[6-Bromo-2-fluoro-3-(2-oxo-2,3-dihydro-benzoimidazol-1-ylmethyl)-phenoxy]-5-chloro-benzonitrile] | 227 to 229 °C | 0.0122 µM | – | – |

Source: patent US7947709B2, “Non-nucleoside reverse transcriptase inhibitors” (Roche Palo Alto LLC, priority 2007, dated 2011)
